Assay results as given in paper PMC5814585, “Modulators of actin-myosin dissociation: basis for muscle type functional differences during fatigue” (American Journal of Physiology - Cell Physiology, 2017).
Where “and” joins values, the source holds several entries; their conditions need not be identical. Equal entries are not always repeated.

Legend:
actin.PsoS1 [1] = assay: ADP dissociation constant (KADP) by competitive inhibition of ATP-induced dissociation, psoas; type: binding, rabbit; conditions: for kobs of ATP-induced dissociation with ADP present: 25 µM ATP, 20°C
Procedure: In a similar process, ADP dissociation constant (KADP), which defines ADP affinity for actin.S1, was measured by adding to the mixture ADP as a competitive inhibitor of ATP binding. […] This approach assumes that ADP is in rapid equilibrium with the actin.S1 complex on the time scale of the ATP-induced dissociation reaction. This was ensured by using the low (25 µM) concentration of ATP. That this assumption holds was tested by repeating the measurement with ADP preincubated with actin.S1 and then mixing with ATP. The observed rate constants were identical in each case.
(§1) (4)) kobs=K1k+2[ATP]/[1+([I]/KI)]

actin.MassS1 [2] = molecular target: T1, actin.MassS1 (Bos taurus, UniProt Q9BE39); assay: ADP dissociation constant (KADP) by competitive inhibition of ATP-induced dissociation, masseter; type: binding, bovine; conditions: for kobs of ATP-induced dissociation with ADP present: 25 µM ATP, 20°C, pH 7.0
T1 construct: from tissue; host or cells: bovine masseter muscle (myosin); rabbit muscle (actin)
Procedure: In a similar process, ADP dissociation constant (KADP), which defines ADP affinity for actin.S1, was measured by adding to the mixture ADP as a competitive inhibitor of ATP binding. In this case it is convenient to add the ADP to the ATP solution, i.e., 0.5 µM pyr.actin.S1 was mixed with 25 µM ATP with various concentrations of ADP present with the ATP (from 0 to 1200 µM). This approach assumes that ADP is in rapid equilibrium with the actin.S1 complex on the time scale of the ATP-induced dissociation reaction. This was ensured by using the low (25 µM) concentration of ATP. That this assumption holds was tested by repeating the measurement with ADP preincubated with actin.S1 and then mixing with ATP. The observed rate constants were identical in each case.
as §1

actin.PsoS1 [3] = assay: ADP dissociation constant in the presence of phosphate (KADP+Pi) and calculated KPi app, psoas; type: binding, rabbit; conditions: 30 mM Pi
actin.MassS1 [4] = molecular target: T1, actin.MassS1; assay: ADP dissociation constant in the presence of phosphate (KADP+Pi) and calculated KPi app, masseter; type: binding, bovine; conditions: 15 mM Pi
actin.MassS1 [5] = molecular target: T1, actin.MassS1; assay: ADP release rate constant (k-AD), ADP displacement by excess ATP; type: biochemical, bovine; design: effect of Pi on kobs of ADP release / increase in kobs of ADP release in the presence of phosphate / activation energy (Ea) of k−AD (ADP release): dose or concentration left out as unconfirmed; conditions: for kobs of ADP release (fast phase): 75 µM ADP displaced by 8 mM ATP; for activation energy (Ea) of k−AD (ADP release): Mass
Procedure: Two types of myosins were studied which are known to differ in their dissociation constant for nucleotides ([5], [51]). The rate constant for the release of ADP (k−ADP) is relatively slow for masseter S1 and can easily be measured in an ADP displacement experiment. This step is very fast for a fast muscle isoform and too fast to measure by current equipment. Briefly, actin.^MassS1 saturated with 75 µM of ADP (A.M.D complex) was mixed with a large excess of ATP (8 mM) in the stopped flow. Then the kobs values, fitted to a single exponential equation (Eqn 1) defined the rate constant by which ADP is released by the ternary A.M.D complex (k−AD).
The temperature dependence of the above studied biochemical steps K1k+2, KADP, KPi, and KADP+Pi data were plotted as the natural logarithm of the measured parameter against the reciprocal of temperature in degrees Kelvin (1/T °K) and fitted with linear regression using the Arrhenius (rate constants) or Van’t Hoff (equilibrium constants) equations(7)) lnK1k+2=ln(A)−Ea/RT (8)) lnKeq=ΔS°/R−ΔH°/RT where Ea stands for activation energy, R is the gas constant, and A is a preexponential factor. The values of –Ea/R or or ΔH°/R were derived from the slopes.

actin.MassS1 [6] = molecular target: T1, actin.MassS1; design: method as in Bloemink et al. (4); conditions: ref Bloemink et al. (4); cited from earlier work

Compound: Nc1ncnc2c1ncn2[C@@H]1O[C@H](COP(=O)(O)OP(=O)(O)O)[C@@H](O)[C@H]1O [ADP]
- kobs of ATP-induced dissociation with ADP present (actin.PsoS1 [1]; 0.25 mM ADP, pH 7.0): 45.9 s⁻¹
- kobs of ATP-induced dissociation with ADP present (actin.PsoS1 [1]; 1 mM ADP, pH 7.0): 21.4 s⁻¹
- kobs of ATP-induced dissociation with ADP present (actin.PsoS1 [1]; 4 mM ADP, pH 7.0): 14.5 s⁻¹
- Kd (actin.PsoS1 [1]; Psoas S1, pH 6.2, 10°C, read-out: KADP): 256 ± 32 µM
- Kd (actin.PsoS1 [1]; Psoas S1, pH 6.2, 20°C, read-out: KADP): 228 ± 36 µM
- Kd (actin.PsoS1 [1]; Psoas S1, pH 6.2, 30°C, read-out: KADP): 236 ± 29 µM
- Kd (actin.PsoS1 [1]; Psoas S1, pH 7.0, 10°C, read-out: KADP): 201 ± 34 µM
- Kd (actin.PsoS1 [1]; Psoas S1, pH 7.0, 20°C, read-out: KADP): 203 ± 13 µM
- Kd (actin.PsoS1 [1]; Psoas S1, pH 7.0, 30°C, read-out: KADP): 232 ± 29 µM
- Kd (actin.PsoS1 [1]; psoas actin.S1, between 10 and 30°C, pH 7.0, read-out: ADP affinity (KADP)): ~200 µM
- kobs of ATP-induced dissociation with ADP present (actin.MassS1 [2]; 25 µM ADP): 21.7 s⁻¹
- kobs of ATP-induced dissociation with ADP present (actin.MassS1 [2]; 100 µM ADP): 9.1 s⁻¹
- kobs of ATP-induced dissociation with ADP present (actin.MassS1 [2]; 500 µM ADP): 2.6 s⁻¹
- weakening of KADP at pH 6.2 vs pH 7.0 (actin.MassS1 [2]; MassS1, 30°C): 1.5 fold
- Kd (actin.MassS1 [2]; Masseter S1, pH 6.2, 10°C): 22 µM and 21.8 µM
- Kd (actin.MassS1 [2]; Masseter S1, pH 6.2, 20°C): 48.4 µM and 47 µM and 46.8 µM
- Kd (actin.MassS1 [2]; Masseter S1, pH 6.2, 30°C): 83.9 ± 4.7 µM
- Kd (actin.MassS1 [2]; Masseter S1, pH 7.0, 10°C): 9.6 µM and 10 µM and 10.3 µM
- Kd (actin.MassS1 [2]; Masseter S1, pH 7.0, 20°C): 31 µM and 31.3 µM and 29.7 µM
- Kd (actin.MassS1 [2]; Masseter S1, pH 7.0, 30°C): 56.2 ± 6.5 µM
- Kd (actin.PsoS1 [3]; Psoas S1, pH 6.2, 10°C, read-out: KADP+Pi): 665 ± 39 µM
- Kd (actin.PsoS1 [3]; Psoas S1, pH 6.2, 20°C, read-out: KADP+Pi): 514 µM
- Kd (actin.PsoS1 [3]; Psoas S1, pH 6.2, 30°C, read-out: KADP+Pi): 926 ± 73 µM
- Kd (actin.PsoS1 [3]; Psoas S1, pH 7.0, 10°C, read-out: KADP+Pi): 770 ± 37 µM
- Kd (actin.PsoS1 [3]; Psoas S1, pH 7.0, 20°C, read-out: KADP+Pi): 919 ± 72 µM
- Kd (actin.PsoS1 [3]; Psoas S1, pH 7.0, 30°C, read-out: KADP+Pi): 942 µM and 1020 µM
- Kd (actin.PsoS1 [3]; psoas, 10–20°C, pH 7.0, read-out: apparent KADP in the presence of Pi): ~500 µM
- Kd (actin.MassS1 [4]; Masseter S1, pH 6.2, 10°C): 52.2 ± 4.2 µM
- Kd (actin.MassS1 [4]; Masseter S1, pH 6.2, 20°C): 82.6 ± 5.7 µM
- Kd (actin.MassS1 [4]; Masseter S1, pH 6.2, 30°C): 175 µM
- Kd (actin.MassS1 [4]; Masseter S1, pH 7.0, 10°C): 22.5 ± 2.9 µM
- Kd (actin.MassS1 [4]; Masseter S1, pH 7.0, 20°C): 44.4 ± 4.6 µM
- Kd (actin.MassS1 [4]; Masseter S1, pH 7.0, 30°C): 79.3 ± 6.5 µM
- kobs of ADP release (fast phase) (actin.MassS1 [5]; pH 7.0, 5°C): 16.2 s⁻¹
- kobs of ADP release (fast phase) (actin.MassS1 [5]; pH 7.0, 10°C): 26.0 s⁻¹
- kobs of ADP release (fast phase) (actin.MassS1 [5]; pH 7.0, 20°C): 85 s⁻¹ and 85.0 s⁻¹
- kobs of ADP release (fast phase) (actin.MassS1 [5]; pH 7.0, 30°C): 273 s⁻¹
- kobs of ADP release (fast phase) (actin.MassS1 [5]; pH 7.0, […]°C): 46.3 s⁻¹
- activation energy (Ea) of k−AD (ADP release) (actin.MassS1 [5]; pH 6.2, + […] mM Pi): 21.2 ± 0.932 kcal/mol
- activation energy (Ea) of k−AD (ADP release) (actin.MassS1 [5]; pH 6.2, no Pi): 20.2 ± 1.46 kcal/mol
- activation energy (Ea) of k−AD (ADP release) (actin.MassS1 [5]; pH 7.0, + […] mM Pi): 22.6 ± 1.2 kcal/mol
- activation energy (Ea) of k−AD (ADP release) (actin.MassS1 [5]; pH 7.0, no Pi): 18.1 ± 0.98 kcal/mol
- kobs of ADP release, published result (actin.MassS1 [6]): 94 s⁻¹
